Assay in all cases: KINOMEscan (ScanMAX) kinase profiling
Format in all cases: binding

Assay [1] concerns the target T1, panel of 468 kinases (Homo sapiens, UniProt P04049).
T1 construct: purchased KINOMEscan (ScanMAX) service
The note with it: RAF1; 1 μM; read-out: % control.

The target in assay [2] is T2, panel of 468 kinases (Homo sapiens, UniProt P07949).
T2 construct: purchased KINOMEscan (ScanMAX) service
The settings on record: RET; 1 μM; read-out: % control.

Assay [3] concerns the target T3, panel of 468 kinases (Homo sapiens, UniProt Q12852).
T3 construct: purchased KINOMEscan (ScanMAX) service
T3 sequence (Q12852 1-859): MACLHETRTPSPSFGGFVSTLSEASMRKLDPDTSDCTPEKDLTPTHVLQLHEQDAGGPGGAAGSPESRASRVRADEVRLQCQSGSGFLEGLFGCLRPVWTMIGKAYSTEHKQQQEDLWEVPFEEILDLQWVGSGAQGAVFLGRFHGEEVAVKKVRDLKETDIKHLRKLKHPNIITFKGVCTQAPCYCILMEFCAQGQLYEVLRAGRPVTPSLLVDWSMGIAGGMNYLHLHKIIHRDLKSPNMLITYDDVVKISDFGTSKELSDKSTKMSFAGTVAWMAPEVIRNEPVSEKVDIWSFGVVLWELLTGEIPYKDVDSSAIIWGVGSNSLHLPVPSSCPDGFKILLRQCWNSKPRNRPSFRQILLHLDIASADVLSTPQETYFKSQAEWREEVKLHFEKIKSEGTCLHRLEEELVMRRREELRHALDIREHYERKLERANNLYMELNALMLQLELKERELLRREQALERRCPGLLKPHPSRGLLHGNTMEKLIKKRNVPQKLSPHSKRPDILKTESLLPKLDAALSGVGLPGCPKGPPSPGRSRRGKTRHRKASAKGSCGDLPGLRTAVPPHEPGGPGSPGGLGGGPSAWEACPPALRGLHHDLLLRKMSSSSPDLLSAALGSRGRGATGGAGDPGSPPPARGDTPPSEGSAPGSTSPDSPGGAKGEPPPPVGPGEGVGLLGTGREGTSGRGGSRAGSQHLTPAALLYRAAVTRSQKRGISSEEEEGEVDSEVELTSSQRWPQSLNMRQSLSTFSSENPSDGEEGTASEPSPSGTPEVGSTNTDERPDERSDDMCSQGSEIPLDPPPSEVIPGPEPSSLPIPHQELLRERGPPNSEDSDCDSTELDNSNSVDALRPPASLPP
The note with it: DLK; 1 μM; read-out: % control.

In assay [4] the target is T4, panel of 468 kinases (Homo sapiens, UniProt Q13554).
T4 construct: purchased KINOMEscan (ScanMAX) service
The note with it: CAMK2B; 1 μM; read-out: % control.

Assay [5] addresses T5, panel of 468 kinases (Homo sapiens, UniProt Q8IW41).
T5 construct: purchased KINOMEscan (ScanMAX) service
T5 sequence (Q8IW41 1-473): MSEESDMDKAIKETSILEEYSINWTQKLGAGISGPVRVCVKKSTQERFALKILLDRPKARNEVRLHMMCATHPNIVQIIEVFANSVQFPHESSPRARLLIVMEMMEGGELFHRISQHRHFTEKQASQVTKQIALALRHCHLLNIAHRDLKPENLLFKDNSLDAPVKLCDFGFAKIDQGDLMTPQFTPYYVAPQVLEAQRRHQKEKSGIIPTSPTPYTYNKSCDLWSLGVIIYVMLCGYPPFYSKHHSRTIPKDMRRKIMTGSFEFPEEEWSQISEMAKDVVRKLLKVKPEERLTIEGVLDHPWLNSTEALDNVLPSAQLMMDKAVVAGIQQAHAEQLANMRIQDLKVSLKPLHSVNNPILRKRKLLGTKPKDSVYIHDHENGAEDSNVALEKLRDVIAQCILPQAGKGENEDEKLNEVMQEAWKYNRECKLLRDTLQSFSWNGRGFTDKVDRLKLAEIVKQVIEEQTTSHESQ
The note with it: MAPKAPK5; 1 μM; read-out: % control.

Assay [6] concerns the target T6, panel of 468 kinases (Homo sapiens, UniProt Q8TD19).
T6 construct: purchased KINOMEscan (ScanMAX) service
T6 sequence (Q8TD19 1-979): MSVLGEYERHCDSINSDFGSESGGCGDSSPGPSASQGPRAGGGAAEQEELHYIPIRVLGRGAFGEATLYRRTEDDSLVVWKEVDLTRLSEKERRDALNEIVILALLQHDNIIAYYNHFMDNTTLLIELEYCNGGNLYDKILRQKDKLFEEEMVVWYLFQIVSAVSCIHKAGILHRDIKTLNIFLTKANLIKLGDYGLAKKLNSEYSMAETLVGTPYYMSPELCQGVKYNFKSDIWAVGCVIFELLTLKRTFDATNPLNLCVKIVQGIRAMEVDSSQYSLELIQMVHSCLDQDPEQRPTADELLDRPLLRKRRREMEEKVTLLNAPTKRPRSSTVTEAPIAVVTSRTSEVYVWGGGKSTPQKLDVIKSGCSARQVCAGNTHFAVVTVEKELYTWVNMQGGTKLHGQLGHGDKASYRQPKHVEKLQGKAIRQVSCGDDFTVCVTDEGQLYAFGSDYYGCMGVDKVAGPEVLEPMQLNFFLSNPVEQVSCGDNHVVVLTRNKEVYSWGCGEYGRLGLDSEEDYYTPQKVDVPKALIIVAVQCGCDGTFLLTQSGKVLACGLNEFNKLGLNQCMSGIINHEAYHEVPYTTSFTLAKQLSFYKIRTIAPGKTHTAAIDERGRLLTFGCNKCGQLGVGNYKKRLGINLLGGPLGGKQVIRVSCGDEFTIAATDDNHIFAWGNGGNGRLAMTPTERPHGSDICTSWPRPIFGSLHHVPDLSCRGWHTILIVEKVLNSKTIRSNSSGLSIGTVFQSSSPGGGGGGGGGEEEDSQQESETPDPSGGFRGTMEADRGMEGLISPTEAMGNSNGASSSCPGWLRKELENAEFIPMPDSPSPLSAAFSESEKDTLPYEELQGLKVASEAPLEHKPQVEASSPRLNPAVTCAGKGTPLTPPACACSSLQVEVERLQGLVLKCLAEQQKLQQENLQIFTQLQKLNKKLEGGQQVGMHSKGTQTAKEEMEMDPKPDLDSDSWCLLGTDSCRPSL
The note with it: NEK9; 1 μM; read-out: % control.

SMILES strings stand for the structures.

T2 sequence (P07949 29-1114): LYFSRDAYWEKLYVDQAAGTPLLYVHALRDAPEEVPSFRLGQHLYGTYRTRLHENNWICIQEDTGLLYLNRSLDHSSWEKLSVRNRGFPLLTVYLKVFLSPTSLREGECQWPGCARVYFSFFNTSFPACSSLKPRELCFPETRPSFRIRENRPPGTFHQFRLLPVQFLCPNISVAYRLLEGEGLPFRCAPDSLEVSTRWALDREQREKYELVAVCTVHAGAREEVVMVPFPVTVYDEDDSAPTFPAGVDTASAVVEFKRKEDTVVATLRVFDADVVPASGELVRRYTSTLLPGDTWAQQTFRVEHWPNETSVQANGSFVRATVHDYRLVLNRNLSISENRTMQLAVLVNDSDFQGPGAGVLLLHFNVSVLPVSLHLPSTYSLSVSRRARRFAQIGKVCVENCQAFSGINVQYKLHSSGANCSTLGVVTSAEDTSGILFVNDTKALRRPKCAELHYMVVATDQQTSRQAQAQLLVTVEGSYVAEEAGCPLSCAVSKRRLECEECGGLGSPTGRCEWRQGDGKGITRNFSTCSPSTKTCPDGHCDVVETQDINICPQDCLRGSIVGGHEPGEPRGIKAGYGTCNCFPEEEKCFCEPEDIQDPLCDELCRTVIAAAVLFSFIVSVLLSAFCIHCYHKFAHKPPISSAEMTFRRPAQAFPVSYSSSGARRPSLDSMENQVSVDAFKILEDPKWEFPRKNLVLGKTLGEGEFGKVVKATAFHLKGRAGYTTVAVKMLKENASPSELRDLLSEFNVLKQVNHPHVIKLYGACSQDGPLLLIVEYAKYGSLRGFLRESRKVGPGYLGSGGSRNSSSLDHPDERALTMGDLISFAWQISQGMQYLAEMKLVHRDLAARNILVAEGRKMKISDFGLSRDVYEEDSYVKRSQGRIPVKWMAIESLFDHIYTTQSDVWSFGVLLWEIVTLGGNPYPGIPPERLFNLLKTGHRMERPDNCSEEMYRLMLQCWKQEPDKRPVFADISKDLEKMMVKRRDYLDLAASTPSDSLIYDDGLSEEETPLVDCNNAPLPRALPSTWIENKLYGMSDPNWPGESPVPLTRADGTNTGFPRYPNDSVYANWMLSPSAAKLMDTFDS
T1 sequence (P04049 whole entry): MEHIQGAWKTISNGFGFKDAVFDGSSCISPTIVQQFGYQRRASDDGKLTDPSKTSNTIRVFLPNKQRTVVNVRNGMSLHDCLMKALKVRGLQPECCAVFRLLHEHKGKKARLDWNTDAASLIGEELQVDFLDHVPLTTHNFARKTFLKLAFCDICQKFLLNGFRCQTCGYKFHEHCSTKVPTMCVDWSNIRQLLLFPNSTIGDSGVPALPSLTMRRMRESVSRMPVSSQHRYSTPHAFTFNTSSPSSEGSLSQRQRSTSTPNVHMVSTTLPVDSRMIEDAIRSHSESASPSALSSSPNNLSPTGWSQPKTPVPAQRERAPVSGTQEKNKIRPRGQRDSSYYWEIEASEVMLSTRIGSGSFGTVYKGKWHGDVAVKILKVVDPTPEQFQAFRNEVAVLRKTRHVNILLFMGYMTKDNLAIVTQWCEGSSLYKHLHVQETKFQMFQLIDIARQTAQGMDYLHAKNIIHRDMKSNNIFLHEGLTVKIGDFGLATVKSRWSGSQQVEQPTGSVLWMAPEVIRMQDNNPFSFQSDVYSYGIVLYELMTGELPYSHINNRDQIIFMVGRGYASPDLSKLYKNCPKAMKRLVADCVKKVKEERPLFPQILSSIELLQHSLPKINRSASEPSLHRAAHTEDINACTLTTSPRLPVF
T4 sequence (Q13554 whole entry): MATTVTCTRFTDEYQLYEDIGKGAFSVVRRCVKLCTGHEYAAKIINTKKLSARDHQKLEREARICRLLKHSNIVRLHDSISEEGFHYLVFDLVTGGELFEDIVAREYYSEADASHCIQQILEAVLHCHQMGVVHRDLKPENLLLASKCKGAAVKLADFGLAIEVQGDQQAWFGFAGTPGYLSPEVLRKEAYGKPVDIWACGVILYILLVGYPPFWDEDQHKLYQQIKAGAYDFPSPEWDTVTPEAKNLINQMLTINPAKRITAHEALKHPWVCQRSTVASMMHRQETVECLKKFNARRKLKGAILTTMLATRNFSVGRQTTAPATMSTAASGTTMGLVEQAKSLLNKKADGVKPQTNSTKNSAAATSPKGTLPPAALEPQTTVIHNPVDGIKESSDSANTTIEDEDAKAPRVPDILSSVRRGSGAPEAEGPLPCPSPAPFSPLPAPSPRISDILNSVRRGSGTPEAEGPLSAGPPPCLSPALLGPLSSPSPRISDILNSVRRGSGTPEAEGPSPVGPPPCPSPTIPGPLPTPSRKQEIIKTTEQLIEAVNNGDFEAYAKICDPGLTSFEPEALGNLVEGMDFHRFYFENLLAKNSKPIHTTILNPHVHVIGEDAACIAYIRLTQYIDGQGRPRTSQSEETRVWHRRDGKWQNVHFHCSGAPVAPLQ

In the case of `CNc1nc(Nc2ccc(S(=O)(=O)N3CCC(N4CCOCC4)CC3)cc2OC)nc2[nH]cc(Cl)c12` [Compound 12, 5-chloro-N2-(2-methoxy-4-((4-morpholinopiperidin-1-yl)sulfonyl)phenyl)-N4-methyl-7H-pyrrolo[2,3-d]pyrimidine-2,4-diamine], the remaining binding at 1 µM was 100% in assay [1]; 100% in assay [2]; 95% in assay [3]; 100% in assay [4]; 67% in assay [5]; 100% in assay [6].

`CNc1nc(Nc2ccc(P3(=O)CCN(C4CCOCC4)CC3)cc2OC)nc2[nH]cc(Cl)c12` [Compound 77, 4-(4-((5-chloro-4-(methylamino)-7H-pyrrolo[2,3-d]pyrimidin-2-yl)amino)-3-methoxyphenyl)-1-(tetrahydro-2H-pyran-4-yl)-1,4-azaphosphinane 4-oxide]: the remaining binding at 1 µM in assay [1] came out at 100%; in assay [2], 100%; in assay [3] it was 100%; in assay [4] it was 92%; in assay [5] it was 46%; in assay [6] it was 100%.

For the compound `CNc1nc(Nc2ccc(C(=O)N3CCC(N4CCOCC4)CC3)c3c2OCO3)nc2[nH]cc(Cl)c12` [Compound 75, (7-((5-chloro-4-(methylamino)-7H-pyrrolo[2,3-d]pyrimidin-2-yl)amino)benzo[d][1,3]dioxol-4-yl)(4-morpholinopiperidin-1-yl)methanone], the remaining binding at 1 µM in assay [1] came to 100%; in assay [2] it was 100%; in assay [3], 100%; in assay [4], 94%; in assay [5], 43%; in assay [6], 100%.

The values are drawn from US12479847B2 (DANA-FARBER CANCER INSTITUTE, INC., priority 2019, dated 2025).
